# According to US5443986A, “Enzymatic analysis using substrates that yield fluorescent precipitates” (Molecular Probes, Inc., priority 1993, dated 1995):
# Columns and labels:
# [1] = Critical concentration (Mc) for precipitation of the enzymatic product; assay type: physicochemical; conditions: product of hydrolysis by excess alkaline phosphatase, 0.1M TRIS pH 10.3
# Protocol: 2D) Critical concentration: Various concentrations of 2-(4'-methoxy-2'-phosphoryloxyphenyl)quinazolinone (3e) were reacted with 50 μL of excess alkaline phosphatase in 200 μL solution of 0.1M TRIS≥pH 10.3 containing 50 mM NaCl, 10 mM MgCl2 and 0.1 mM ZnCl2. The resulting precipitate and fluorescence were measured in a CytoFluor fluorescence plate reader (Millipore) with excitation at 360 nm, emission at 460 nm using sensitivity setting 3.
# 3). Determination of the critical concentration and pH dependence for the precipitation. The critical concentration (Mc, in units of mmoles) and the pH dependence (pKa) for precipitation are both important parameters for judging the precipitation properties of the enzymatic products obtained from the subject substrates. Below the critical concentration the product will not be detected as a fluorescent precipitate. Obviously these two parameters contribute to the precipitation in a correlated way. As a simple approach, one may define the critical concentration as the concentration necessary for the precipitation at a high pH where all of the phenol group is ionized. Similarly, acidification by lowering the pH results in precipitation at a concentration below the critical concentration that is obtained at high pH to an extent that is related to the pKa of the phenolic group. It is a characteristic of the preferred substrates that only the product precipitate is fluorescent. In this case the precipitate is quantitated by its fluorescence which results in a correlation of the fluorescence with the degree of precipitation.
# To obtain the critical concentration for one product the phosphatase substrate (1e) (200 μL) in a 96-well plate is added to 0.1M TRIS, pH 10.3, containing 50 mM NaCl, 10 mM MgCl2 and 0.1 mM ZnCl2 to yield a final concentration of 0.1 to 10 mM. 50 μL of a 1 mg/mL solution of alkaline phosphatase is then added. The fluorescence development is complete after 5 minutes as measured in using a CytoFluor™ 2300 fluorescence plate reader (Millipore, Bedford, Mass.). A concentration showing appreciable fluorescence is determined as the critical concentration.
# [2] = target: β-glucuronidase from E. coli (Escherichia coli, UniProt P05804); experiment: Detection of enzymatic activity in chromatographic fractions, glucuronidase peak; assay type: biochemical; conditions: 5 μL of 5 mg/mL substrate added to 25 μL fraction, pH 7.0
# Sequence of β-glucuronidase from E. coli (P05804 whole entry): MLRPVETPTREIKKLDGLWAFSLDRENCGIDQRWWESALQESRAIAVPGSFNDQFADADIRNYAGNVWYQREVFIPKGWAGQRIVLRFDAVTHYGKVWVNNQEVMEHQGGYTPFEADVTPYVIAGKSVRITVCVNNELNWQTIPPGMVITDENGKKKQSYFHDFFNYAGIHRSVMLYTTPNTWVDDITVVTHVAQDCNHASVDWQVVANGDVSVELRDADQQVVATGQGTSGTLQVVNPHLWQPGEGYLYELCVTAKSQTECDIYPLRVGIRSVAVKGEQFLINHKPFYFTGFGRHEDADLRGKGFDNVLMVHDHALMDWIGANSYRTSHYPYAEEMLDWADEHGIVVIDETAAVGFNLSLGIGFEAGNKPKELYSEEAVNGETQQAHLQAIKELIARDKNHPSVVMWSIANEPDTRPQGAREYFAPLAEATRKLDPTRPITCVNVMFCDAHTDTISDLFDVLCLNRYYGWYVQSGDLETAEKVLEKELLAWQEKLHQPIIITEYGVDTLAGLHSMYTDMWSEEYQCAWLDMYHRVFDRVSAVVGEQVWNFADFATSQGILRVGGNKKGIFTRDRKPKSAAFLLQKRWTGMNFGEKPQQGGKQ
# Protocol: (§1) β-galactosidase from E. coli (MW 540,000, approximately 1 mg) and β-glucuronidase from E. coli (MW 280,000, approximately 1 mg) are dissolved in 25 μL of 0.1M phosphate, pH 7,0 containing 0.11M 2-mercaptoethanol and 1 mM MgCl2 and chromatographed on a 1×35 cm column of BioGel A 1.5M equilibrated with the same buffer. Detection of the protein absorption at 280 nm is used to detect isolated protein fractions. […] To 25 μL aliquots of each fraction, is separately added 5 μL of a 5 mg/mL aqueous solution of 2-(5'-methoxy-2'-galactopyranosyl)phenyl-4-(3H)-quinazolone (3h) or 2-(2-O-β-D-glucopyranosiduronic acid)-4-(3H)-quinazolone (4h).
# [3] = target: β-galactosidase from E. coli (Escherichia coli, UniProt P00722); experiment: Detection of enzymatic activity in chromatographic fractions, galactosidase peak; assay type: biochemical; conditions: 5 μL of 5 mg/mL substrate added to 25 μL fraction, pH 7.0
# Sequence of β-galactosidase from E. coli (P00722 2-1024): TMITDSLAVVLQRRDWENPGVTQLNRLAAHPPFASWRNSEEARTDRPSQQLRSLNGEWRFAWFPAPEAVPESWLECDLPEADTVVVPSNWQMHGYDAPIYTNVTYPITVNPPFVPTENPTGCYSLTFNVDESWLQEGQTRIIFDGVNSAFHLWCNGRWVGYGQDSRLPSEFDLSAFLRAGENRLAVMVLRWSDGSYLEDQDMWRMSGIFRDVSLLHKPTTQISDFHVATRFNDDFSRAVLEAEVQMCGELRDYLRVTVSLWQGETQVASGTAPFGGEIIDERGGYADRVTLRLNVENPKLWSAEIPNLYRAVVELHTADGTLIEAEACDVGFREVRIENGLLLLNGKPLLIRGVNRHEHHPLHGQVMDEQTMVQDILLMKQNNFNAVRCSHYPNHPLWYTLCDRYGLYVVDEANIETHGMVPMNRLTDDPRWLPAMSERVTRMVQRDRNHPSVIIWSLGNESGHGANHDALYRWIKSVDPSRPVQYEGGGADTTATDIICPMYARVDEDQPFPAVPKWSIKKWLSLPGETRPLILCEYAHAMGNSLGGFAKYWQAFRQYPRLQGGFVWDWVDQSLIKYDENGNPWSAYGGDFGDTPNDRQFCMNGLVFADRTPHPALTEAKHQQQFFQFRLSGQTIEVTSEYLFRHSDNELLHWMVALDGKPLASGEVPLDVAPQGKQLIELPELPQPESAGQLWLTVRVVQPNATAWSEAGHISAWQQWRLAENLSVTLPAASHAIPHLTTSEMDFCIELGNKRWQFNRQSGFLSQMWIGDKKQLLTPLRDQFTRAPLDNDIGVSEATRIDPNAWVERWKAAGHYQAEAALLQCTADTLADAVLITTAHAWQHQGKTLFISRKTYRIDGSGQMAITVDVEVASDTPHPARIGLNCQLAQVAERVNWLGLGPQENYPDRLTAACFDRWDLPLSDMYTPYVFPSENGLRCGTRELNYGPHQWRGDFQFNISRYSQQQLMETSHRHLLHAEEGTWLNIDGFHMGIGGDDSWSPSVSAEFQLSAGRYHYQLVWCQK
# Protocol: as §1
# alkaline phosphatase [4] = target: T1, alkaline phosphatase (Bos taurus, UniProt P19111); assay type: biochemical; design: mature GPI-type homodimer; conditions: 0.1M TRIS pH 10.3, 50 mM NaCl, 10 mM MgCl2, 0.1 mM ZnCl2; double-reciprocal plot
# T1 sequence (P19111 20-506): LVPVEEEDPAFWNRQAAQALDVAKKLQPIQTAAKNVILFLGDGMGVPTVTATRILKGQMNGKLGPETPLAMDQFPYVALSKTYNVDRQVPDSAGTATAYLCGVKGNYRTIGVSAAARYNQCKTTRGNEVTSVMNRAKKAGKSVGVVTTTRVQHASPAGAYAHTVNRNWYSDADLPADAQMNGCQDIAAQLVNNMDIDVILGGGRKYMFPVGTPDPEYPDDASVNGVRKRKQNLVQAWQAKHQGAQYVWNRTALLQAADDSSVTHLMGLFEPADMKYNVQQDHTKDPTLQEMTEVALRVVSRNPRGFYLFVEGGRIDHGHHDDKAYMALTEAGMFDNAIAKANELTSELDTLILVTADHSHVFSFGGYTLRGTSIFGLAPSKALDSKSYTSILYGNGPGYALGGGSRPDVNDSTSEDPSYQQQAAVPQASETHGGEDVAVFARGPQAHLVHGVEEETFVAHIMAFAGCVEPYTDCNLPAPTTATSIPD
# Protocol: As compared with other synthetic substrates, the fluorogenic precipitating substrates described in this invention normally have high enzymatic turnover rates and moderate affinities for the enzymes. Turnover rates of the substrates can be determined as in Example 10 and expressed as micromoles of product per minute per milligram protein (k2, in units of μmol·min^-1 ·mg^-1). The affinity of the substrate is determined by its dissociation constant, KM, in millimolar units. The enzymes can bind to and catalyze conversion of the soluble substrates into detectable reaction products that are apparently less soluble and will precipitate in aqueous solutions. The preferred detectable reaction products are fluorescent precipitates. The precipitation, however, and thus fluorescence, depends on the reaction product concentration or the initial substrate concentration used, as well as the ionization state of the product's phenol group. There are two parameters determining the precipitation, i.e. critical concentration (Mc) and pH dependence (pKa). A method for determination of these parameters is given in Example 11. Table 10 gives the relevant parameters for the enzymatic reaction and precipitation of quinazolinone-based alkaline phosphatase substrates.
# 4). Kinetic assay of some of the substrates. The specific activity (k2, in a unit of micromole per minute per milligram protein) and Michaelis constant (KM, in a unit of millimole) for hydrolysis of the substrates by the enzyme are listed in Table 10. All of the specific enzymatic reactions are made in the following buffers:
# For alkaline phosphatase: 0.1M TRIS pH 10.3 containing 50 mM NaCl, 10 mM MgCl2 and 0.1 mM ZnCl2.
# Because the kinetic assay involves variable amounts of precipitate with variable light scattering, measurement in the fluorometer as described above cannot be used here. Instead, a fluorescence plate reader with front-face measurement geometry such as the CytoFluor™ 2300 (Millipore, Bedford, Mass.) is preferred for quantitating the precipitate. The following protocol illustrates the kinetic assay.
# 4.1 ). In a 96-well plate, pipette 200 μL of a phosphatase substrate in the alkaline phosphatase reaction buffer with a final concentration of 2 to 6 mM, then add 50 μL 1 mg/mL alkaline phosphatase. […] Fluorescence of the precipitate is measured in the CytoFluor with appropriate sensitivity and excitation and emission settings as have been determined with the fluorometer. The fluorescence signal versus the amount of the precipitate is then established for each substrate.
# 4.2). […] Read the fluorescence of the resulting precipitate after 10 minutes reaction time and calculate the precipitate formation rate per minute by use of the determined fluorescence signal versus the amount of the precipitate. […]
# [5] = target: Alkaline phosphatase conjugated goat anti-rabbit antibodies (Bos taurus, UniProt P19111); experiment: Western blot immunodetection of subunit II of bovine heart cytochrome c oxidase with a phosphatase substrate; assay type: biochemical
# Sequence of Alkaline phosphatase conjugated goat anti-rabbit antibodies (P19111 20-506 limits assumed): as the sequence (P19111 20-506) above
# Protocol: 1.1. Cytochrome c oxidase from the bovine heart mitochondrial inner membrane is highly purified according to the method of Capaldi and Hayashi, FEBS LETT 26, 4229-4238 (1972).
# 1.2. 50 μl of pure cytochrome c oxidase (20 mg/ml) is dissolved in a dissociation buffer to a final concentration of 1 mg/ml for electrophoresis.
# 1.3. An 18% acrylamide gel containing 6M urea, 0.1% SDS is used for gel electrophoresis according to a procedure published by Zhang, Lindorfer and Capaldi, BIOCHEMISTRY, 27, 1389-1394 (1988). 15 μg of protein is loaded onto each lane. The subunits of cytochrome c oxidase are separated during electrophoresis (there are 13 different subunits in bovine cytochrome c oxidase).
# 2.3. Protein samples in both B and C, resolved in SDS-gel electrophoresis, are semi-dry transferred onto a nitrocellulose membrane following a standard electrophoretic elution procedure published by Harlow and Lane, ANTIBODIES, A LABORATORY MANUAL, Cold Spring Harbor Lab (1988).
# 3.1. The nitrocellulose membrane is incubated with a polyclonal antibody that is specific for Subunit II of Cytochrome C oxidase (final antibody concentration: 20 μg/ml) at room temperature for 12 hours with agitation.
# 3.2. The membrane is incubated with the enzyme-labeled secondary antibody at room temperature for 1 hour with agitation. Alkaline phosphatase conjugated goat anti-rabbit antibodies are used with 1:3000 dilution in TTBS buffer containing 1% nonfat milk.
# 3.4. Membrane B is incubated in the phosphatase substrate BCIP/NBT (BioRad), while C is incubated with the fluorogenic, phosphatase substrate 1e.
# alkaline phosphatase [6] = target: T1, alkaline phosphatase; experiment: Fluorescence and light scattering on hydrolysis of the substrate (FIG. 2B, 2C); assay type: biochemical; design: mature GPI-type homodimer; conditions: 10 μg/mL alkaline phosphatase, 20 seconds
# Protocol: 2B) Coexistence of fluorescence and precipitation: 5 mM 2-(4'-methoxy-2'-phosphoryloxyphenyl)quinazolinone (3e), in 0.1M TRIS pH 10.3 containing 50 mM NaCl, 10 mM MgCl2 and 0.1 mM ZnCl2, yields 210 units of fluorescence by action of 10 μg/mL alkaline phosphatase in 20 seconds. The fluorescence can be eliminated by addition of 0.6% Triton X-100 as a result of precipitate dissolution.
# 2C) Light-scattering increase as a result of precipitation: 2 mM 2-(4'-methoxy-2'-phosphoryloxyphenyl)quinazolinone (3e) scattering increases from 450 units to beyond the detection limit of 1000 units in 20 seconds by action of 10 μg/mL alkaline phosphatase, showing rapid formation of a precipitate. The enzymatic reaction was in 0.1M TRIS pH 10.3 containing 50 mM NaCl, 10 mM MgCl2 and 0.1 mM ZnCl2. The scattering measurement was made in a Perkin-Elmer LS-50 fluorometer with 5 nm slits and a coincident excitation and emission wavelength of 420 nm.
SMILES,Mc (critical concentration for precipitation) [1],"k2 (specific activity, turnover rate) (alkaline phosphatase [4])",also measured
"O=c1[nH]c(-c2cc(Cl)ccc2OP(=O)(O)O)nc2ccccc12 [9e, 2-(5'-chlorophenyl)]",0.4 mM,,
"COc1ccc(O[C@@H]2O[C@H](CO)[C@H](O)[C@H](O)[C@H]2O)c(-c2nc3ccccc3c(=O)[nH]2)c1 [3h, 2-(5'-methoxy-2'-galactopyranosyl)phenyl-4-(3H)-quinazolone]",,,fluorescent precipitate formation in fractions of the second peak (β-glucuronidase) [2]: No cross reactivity is observed; fluorescent precipitate formation in fractions of the first peak (β-galactosidase) [3]: Visible yellow fluorescent precipitate formation occurs
"O=c1[nH]c(-c2ccccc2OP(=O)(O)O)nc2ccc([N+](=O)[O-])cc12 [6e, 2-phenyl-6-nitro]",1.2 mM,150.66 µmol/min/mg,
"COc1ccc(OP(=O)(O)O)c(-c2nc3ccccc3c(=O)[nH]2)c1 [2e, 2-(5'-methoxyphenyl)]",0.8 mM,,
"COc1ccc(OP(=O)(O)O)c(-c2nc3ccc(Cl)cc3c(=O)[nH]2)c1 [5e, 2-(5'-methoxyphenyl)-6-chloro]",1.2 mM,,
"O=c1[nH]c(-c2ccccc2OP(=O)(O)O)nc2ccccc12 [1e, 2-phenyl]",1.5 mM,188.81 µmol/min/mg,persistence of the stain on the membrane ([5]; membrane kept in a dry Petri dish): still fluorescent after 3 days; incubation time after which the immunoreactive band is visualized ([5]; nitrocellulose membrane): 30 min; staining of other transferred bands ([5]; nitrocellulose membrane): No other transferred bands are stained
"O=C(O)[C@H]1O[C@@H](Oc2ccccc2-c2nc3ccccc3c(=O)[nH]2)[C@H](O)[C@@H](O)[C@@H]1O [4h, 2-(2-O-β-D-glucopyranosiduronic acid)-4-(3H)-quinazolone]",,,fluorescent precipitate formation in fractions of the second peak (β-glucuronidase) [2]: visible formation of a green fluorescent precipitate occurs; fluorescent precipitate formation in fractions of the first peak (β-galactosidase) [3]: No cross reactivity is observed
"COc1cc(OC)c(OP(=O)(O)O)c(-c2nc3ccccc3c(=O)[nH]2)c1 [2-(3',5'-dimethoxyphenyl)]",0.3 mM,215.60 µmol/min/mg,
"COc1ccc(-c2nc3ccccc3c(=O)[nH]2)c(OP(=O)(O)O)c1 [3e, 2-(4'-methoxy-2'-phosphoryloxyphenyl)quinazolinone]",2.5 mM,,"light scattering after action of alkaline phosphatase (alkaline phosphatase [6]; 2 mM substrate, starts at 450 units, detection limit 1000 units, 420 nm): > 1000 units; fluorescence yielded by action of alkaline phosphatase (alkaline phosphatase [6]; 5 mM substrate, 0.1M TRIS pH 10.3): 210 units"
